Reference: patent US9732094B2, “Arylquinazolines” (Merck Patent GmbH, priority 2013, dated 2017)
Where two headings read alike, the source gives them in different places. Blank lines part the entries; values can stand above or below the molecule they belong to.

What was measured:
[1] = biological target: DNA-PK phosphorylation at serine 2056 (Homo sapiens (Human), UniProt P78527); assay: DNA-PK phosphorylation at serine 2056 (cellular), bleomycin-treated HCT116 cells, ELISA; type: cell-based; settings: read-out: IC50 pDNA-PK
Outline: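 HCT116, MEM alpha + 10% FCS, 37 °C/10% CO2, seeded o/n. Cpd + 10 μM bleomycin, 6 h. ELISA, chemiluminescence; phospho/total DNA-PKcs ratio, DMSO = blank.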

DNA-PK = DNA-PK (Homo sapiens (Human), UniProt P78527); assay: DNA-PK assay (biochemical), flashplate 33P-ATP kinase assay
Outline: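 Reactions ran in streptavidin-coated flashplates and were halted by 200 mM EDTA, with a further 30 min at room temperature before saline washing.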

Kv11.1 (hERG) = Kv11.1 (hERG) (Homo sapiens (Human), UniProt Q12809); assay: Kv11.1 (hERG) ion channel activity (patch clamp assay), HEK293 cells transfected with hERG gene
[2] = cellular, HCT116 cells, 10 μM bleomycin, six hours
[3] = read-out: Ki [Kv1.11 hERG], patch clamp, HEK293 transfected with hERG gene
[4] = read-out: Ki [Kv1.11 hERG], Table 5
[5] = cellular DNA-PK phosphorylation at serine 2056, HCT116
[6] = read-out: Ki [Kv1.11 hERG], hERG patch clamp assay (cells without asterisk)
[7] = Ki [Kv1.11 hERG], patch clamp, HEK293 transfected with hERG gene
[8] = Ki [Kv1.11 hERG], hERG patch clamp assay (cells without asterisk)

Sequence of Kv11.1 (hERG) (Q12809 whole entry): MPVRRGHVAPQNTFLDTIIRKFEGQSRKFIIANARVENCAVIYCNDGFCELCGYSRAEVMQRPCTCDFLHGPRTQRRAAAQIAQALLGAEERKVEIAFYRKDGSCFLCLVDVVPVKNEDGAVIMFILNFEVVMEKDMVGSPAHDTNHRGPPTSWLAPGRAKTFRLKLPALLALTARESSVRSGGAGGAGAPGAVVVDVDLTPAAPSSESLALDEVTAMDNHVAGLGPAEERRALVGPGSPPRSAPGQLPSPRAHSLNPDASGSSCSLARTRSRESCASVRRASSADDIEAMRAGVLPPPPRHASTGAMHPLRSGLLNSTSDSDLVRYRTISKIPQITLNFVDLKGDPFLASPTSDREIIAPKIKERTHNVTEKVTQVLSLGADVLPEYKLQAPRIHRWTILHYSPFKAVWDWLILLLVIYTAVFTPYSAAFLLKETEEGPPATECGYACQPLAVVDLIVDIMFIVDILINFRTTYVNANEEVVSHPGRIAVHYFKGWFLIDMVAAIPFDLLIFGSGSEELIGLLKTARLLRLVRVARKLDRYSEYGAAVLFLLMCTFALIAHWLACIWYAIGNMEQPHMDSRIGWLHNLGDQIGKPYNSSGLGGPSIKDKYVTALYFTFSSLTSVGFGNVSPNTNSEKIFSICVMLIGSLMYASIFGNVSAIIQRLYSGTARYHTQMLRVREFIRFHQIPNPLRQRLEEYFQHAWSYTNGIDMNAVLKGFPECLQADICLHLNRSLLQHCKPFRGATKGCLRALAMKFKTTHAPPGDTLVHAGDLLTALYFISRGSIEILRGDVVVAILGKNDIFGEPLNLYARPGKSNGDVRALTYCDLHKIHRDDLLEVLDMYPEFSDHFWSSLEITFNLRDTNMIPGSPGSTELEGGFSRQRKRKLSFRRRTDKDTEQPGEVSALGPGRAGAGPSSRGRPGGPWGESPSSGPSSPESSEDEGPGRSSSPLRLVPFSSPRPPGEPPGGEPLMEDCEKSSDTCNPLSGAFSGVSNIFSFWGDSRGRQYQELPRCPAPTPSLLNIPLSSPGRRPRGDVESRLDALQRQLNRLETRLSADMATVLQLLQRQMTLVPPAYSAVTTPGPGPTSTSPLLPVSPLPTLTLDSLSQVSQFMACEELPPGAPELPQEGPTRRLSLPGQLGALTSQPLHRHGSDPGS

IC50 [1, 5]: 5 to 10 µM | IC50 (DNA-PK; biochemical DNA-PK assay): 0.003 to 0.007 µM
SMILES: NC(=O)C(c1ccc(F)c(-c2ncnc3cc(N4CCOCC4)ccc23)c1)c1nnc(Cl)c2sccc12 (stereo not drawn) [Example 291, 2-(7-Chlorothieno-[2,3-d}pyridazin-4-yl)-2-[4-fluoro-3-(7-morpholin-4-yl-quinazolin-4-yl)-phenyl]acetamide]
Ki (Kv11.1 (hERG); [6]): < 10 µM

IC50 [1, 5]: 0.5 to 5 µM | IC50 (DNA-PK; biochemical DNA-PK assay): < 0.003 µM
SMILES: Cc1cncnc1C(C(N)=O)c1cc(-c2ncnc3cc(N4CCOCC4)ccc23)ccc1Cl (stereo not drawn) [Example 407, 2-[2-Chloro-5-(7-morpholin-4-yl-quinazolin-4-yl)-phenyl]-2-(5-methyl-pyrimidin-4-yl)-acetamide]
Ki (Kv11.1 (hERG); [6]): 15 to 25 µM

IC50 [1, 5]: 0.5 to 5 µM | IC50 (DNA-PK; biochemical DNA-PK assay): 0.003 to 0.007 µM
SMILES: Cn1c(C(O)c2cc(-c3ncnc4cc(N5CCOCC5)ccc34)ccc2F)cccc1=O (stereo not drawn) [Example 365, 6-{[2-Fluoro-5-(7-morpholin-4-yl-quinazolin-4-yl)-phenyl]hydroxy-methyl}-1-methyl-1H-pyridin-2-one]
Ki (Kv11.1 (hERG); [6]): > 25 µM

IC50 [1, 5]: 0.5 to 5 µM | IC50 (DNA-PK; biochemical DNA-PK assay): 0.003 to 0.007 µM
SMILES: Cc1nccnc1C(C(N)=O)c1cc(-c2ncnc3cc(N4CCOCC4)ccc23)c(F)cc1Cl (stereo not drawn) [Example 324, 2-[2-Chloro-4-fluoro-5-(7-morpholin-4-yl-quinazolin-4-yl)-phenyl]-2-(3-methyl-pyrazin-2-yl)-acetamide]
Ki (Kv11.1 (hERG); [6]): > 25 µM

IC50 [1, 5]: 10 to 30 µM | IC50 (DNA-PK; biochemical DNA-PK assay): 0.007 to 0.03 µM
SMILES: NC(=O)C(c1cc(-c2ncnc3cc(N4CCOCC4)ccc23)c(F)cc1Cl)c1cccc2nncn12 (stereo not drawn) [Example 298, 2-[2-Chloro-4-fluoro-5-(7-morpholin-4-yl-quinazolin-4-yl)-phenyl]-2-[1,2,4]-triazolo[4,3-a]pyridin-5-ylacetamide]
Ki (Kv11.1 (hERG); [6]): > 25 µM

IC50 [1, 2]: < 0.5 µM | IC50 (DNA-PK; enzymatic, 5 μM ATP): < 0.003 µM
SMILES: O[C@H](c1ccc(F)c(-c2ncnc3cc(N4CCOCC4)ccc23)c1)c1nccnc1Cl [Example 27, (R)-(3-Chloro-pyrazin-2-yl)-[4-fluoro-3-(7-morpholin-4-yl-quinazolin-4-yl)phenyl]-methanol]
Ki (Kv11.1 (hERG); [3]): > 25 µM

IC50 [1, 5]: 0.5 to 5 µM | IC50 (DNA-PK; biochemical DNA-PK assay): 0.003 to 0.007 µM
SMILES: NC(=O)C(c1ccc2nccn2n1)c1cc(-c2ncnc3cc(N4CCOCC4)ccc23)c(F)cc1Cl (stereo not drawn) [Example 323, 2-[2-Chloro-4-fluoro-5-(7-morpholin-4-yl-quinazolin-4-yl)-phenyl]-2-imidazo-[1,2-b]pyridazin-6-yl-acetamide]
Ki (Kv11.1 (hERG); [8]): 15 to 25 µM

IC50 [1, 5]: 5 to 10 µM | IC50 (DNA-PK; biochemical DNA-PK assay): 0.007 to 0.03 µM
SMILES: OC(c1cc(-c2ncnc3cc(N4CCOCC4)ccc23)ccc1Cl)c1ncncc1F (stereo not drawn) [Example 389, [2-Chloro-5-(7-morpholin-4-yl-quinazolin-4-yl)-phenyl]-(5-fluoro-pyrimidin-4-yl)-methanol]
Ki (Kv11.1 (hERG); [8]): 10 to 15 µM

IC50 [1, 5]: 10 to 30 µM | IC50 (DNA-PK; biochemical DNA-PK assay): 0.007 to 0.03 µM
SMILES: COc1ccc(C(C(N)=O)c2cc(-c3ncnc4cc(N5CCOCC5)ccc34)c(F)cc2F)nn1 (stereo not drawn) [Example 306, 2-[2,4-Difluoro-5-(7-morpholin-4-yl-quinazolin-4-yl)-phenyl]-2-(6-methoxy-pyridazin-3-yl)acetamide]
Ki (Kv11.1 (hERG); [6]): > 25 µM

Continued, molecule first:

SMILES: OC(c1ccc(F)c(-c2ncnc3cc(N4CCOCC4)sc23)c1)c1nccnc1Cl (single isomer, unassigned) [Example 23, (3-Chloro-pyrazin-2-yl)-[4-fluoro-3-(6-morpholin-4-yl-thieno-[3,2-d}pyrimidin-4-yl)-phenyl]methanol]
IC50 [1, 2]: 5 to 10 µM | IC50 (DNA-PK; enzymatic, 5 μM ATP): 0.007 to 0.03 µM | Ki (Kv11.1 (hERG); [3]): > 25 µM

SMILES: OC(c1cc(F)c(F)c(-c2ncnc3cc(N4CCOCC4)ccc23)c1)c1nccs1 (stereo not drawn) [Example 178, [3,4-Difluoro-5-(7-morpholin-4-yl-quinazolin-4-yl)-phenyl)thiazol-2-yl-methanol]
IC50 ([1]; Table 5, HCT116 cells): 0.5 to 5 µM | IC50 (DNA-PK; Table 5): < 0.003 µM | Ki (Kv11.1 (hERG); [4]): > 25 µM

SMILES: Cc1cnc(C(O)c2ccc(F)c(-c3ncnc4cc(N5CCOCC5)ccc34)c2)c(C)n1 (stereo not drawn) [Example 354, (3,5-Dimethyl-pyrazin-2-yl)-[4-fluoro-3-(7-morpholin-4-yl-quinazolin-4-yl)-phenyl]methanol]
IC50 [1, 5]: < 0.5 µM | IC50 (DNA-PK; biochemical DNA-PK assay): < 0.003 µM | Ki (Kv11.1 (hERG); [6]): > 25 µM

SMILES: OC(c1ccc(F)c(-c2ncnc3cc(N4CCOCC4)ccc23)c1)c1ncccc1Cl (stereo not drawn) [Example 42, (3-Chloro-pyridin-2-yl)-[4-fluoro-3-(7-morpholin-4-yl-quinazolin-4-yl)phenyl]-methanol]
IC50 [1, 2]: < 0.5 µM | IC50 (DNA-PK; enzymatic, 5 μM ATP): < 0.003 µM | Ki (Kv11.1 (hERG); [7]): 15 to 25 µM

SMILES: OC(c1cccc(-c2ncnc3cc(N4CCOCC4)ccc23)c1)(c1nccs1)C(F)(F)F (stereo not drawn) [Example 173, 2,2,2-Trifluoro-1-[3-(7-morpholin-4-yl-quinazolin-4-yl)-phenyl)-1-thiazol-2-ylethanol]
IC50 ([1]; Table 5, HCT116 cells): 5 to 10 µM | IC50 (DNA-PK; Table 5): < 0.003 µM | Ki (Kv11.1 (hERG); [4]): < 10 µM

SMILES: OC(c1cc(-c2ncnc3cc(N4CCOCC4)ccc23)c(F)cc1F)c1nncc2sccc12 (stereo not drawn) [Example 341, [2,4-Difluoro-5-(7-morpholin-4-yl-quinazolin-4-yl)-phenyl]thieno[2,3-d}-pyridazin-4-yl-methanol]
IC50 [1, 5]: < 0.5 µM | IC50 (DNA-PK; biochemical DNA-PK assay): < 0.003 µM | Ki (Kv11.1 (hERG); [8]): 15 to 25 µM

SMILES: OC(c1ccc(F)c(-c2ncnc3cc(N4CCOCC4)sc23)c1)c1nccs1 (racemic) [Example 144, [4-fluoro-3-(6-morpholin-4-ylthieno[3,2-d]pyrimidin-4-yl)phenyl]thiazol-2-ylmethanol]
IC50 ([1]; Table 5, HCT116 cells): 0.5 to 5 µM | IC50 (DNA-PK; Table 5): < 0.003 µM | Ki (Kv11.1 (hERG); human, HEK293 cells stably transfected with the hERG gene, Ki [Kv1.11 hERG], Table 5): 15 to 25 µM

SMILES: Cn1nc(C(O)c2ccc(F)c(-c3ncnc4cc(N5CCOCC5)ccc34)c2)ccc1=O (stereo not drawn) [Example 326, 6-{[4-Fluoro-3-(7-morpholin-4-yl-quinazolin-4-yl)-phenyl]hydroxy-methyl}-2-methyl-2H-pyridazin-3-one]
IC50 [1, 5]: 0.5 to 5 µM | IC50 (DNA-PK; biochemical DNA-PK assay): 0.007 to 0.03 µM | Ki (Kv11.1 (hERG); [6]): > 25 µM

SMILES: OC(c1cn2ccsc2n1)c1cc(-c2ncnc3cc(N4CCOCC4)ccc23)c(F)cc1F (stereo not drawn) [Example 474, [2,4-Difluoro-5-(7-morpholin-4-yl-quinazolin-4-yl)-phenyl]imidazo-[2,1-b]thiazol-6-yl-methanol]
IC50 [1, 5]: 10 to 30 µM | IC50 (DNA-PK; biochemical DNA-PK assay): > 0.03 µM | Ki (Kv11.1 (hERG); [8]): 10 to 15 µM

SMILES: COC(c1ccc(F)c(-c2ncnc3cc(N4CCOCC4)ccc23)c1)c1nccs1 (stereo not drawn) [Example 177, 4-[2-Fluoro-5-(-methoxythiazol-2-ylmethyl)phenyl]-7-morpholin-4-yl-quinazoline]
IC50 ([1]; Table 5, HCT116 cells): 10 to 30 µM | IC50 (DNA-PK; Table 5): 0.003 to 0.007 µM | Ki (Kv11.1 (hERG); [4]): > 25 µM

SMILES: OC(c1cc(F)c(F)c(-c2ncnc3cc(N4CCOCC4)ccc23)c1)c1nccs1 (stereo not drawn) [Example 179, [3,4-Difluoro-5-(7-morpholin-4-yl-quinazolin-4-yl)-phenyl]thiazol-2-yl-methanol]
IC50 ([1]; Table 5, HCT116 cells): 0.5 to 5 µM | IC50 (DNA-PK; Table 5): 0.003 to 0.007 µM | Ki (Kv11.1 (hERG); [4]): < 10 µM

SMILES: Cn1c(C(O)c2cc(-c3ncnc4cc(N5CCOCC5)ccc34)c(F)cc2F)cccc1=O (stereo not drawn) [Example 436, 6-{[2,4-Difluoro-5-(7-morpholin-4-yl-quinazolin-4-yl)-phenyl]hydroxy-methyl}-1-methyl-1H-pyridin-2-one]
IC50 [1, 5]: 0.5 to 5 µM | IC50 (DNA-PK; biochemical DNA-PK assay): 0.003 to 0.007 µM | Ki (Kv11.1 (hERG); [6]): > 25 µM

SMILES: OC(c1ccccn1)c1cc(-c2ncnc3cc(N4CCOCC4)ccc23)c(F)cc1F (stereo not drawn) [Example 218, [2,4-Difluoro-5-(7-morpholin-4-yl-quinazolin-4-yl)-phenyl]pyridin-2-yl-methanol]
IC50 ([1]; Table 7, HCT116 cells): < 0.5 µM | IC50 (DNA-PK; Table 7): 0.003 to 0.007 µM | Ki (Kv11.1 (hERG); Ki [Kv1.11 hERG], Table 7): 15 to 25 µM

SMILES: CCn1c(C(O)c2ccc(F)c(-c3ncnc4cc(N5CCOCC5)ccc34)c2)cccc1=O (stereo not drawn) [Example 398, 1-Ethyl-6-{[4-f1uoro-3-(7-morpholin-4-yl-quinazolin-4-yl)-phenyl]hydroxy-methyl}-1H-pyridin-2-one]
IC50 [1, 5]: 0.5 to 5 µM | IC50 (DNA-PK; biochemical DNA-PK assay): 0.003 to 0.007 µM | Ki (Kv11.1 (hERG); [6]): > 25 µM

SMILES: COc1nccnc1[C@@H](O)c1cc(-c2ncnc3cc(N4CCOCC4)ccc23)c(F)cc1Cl [Example 456, (S)-(2-Chloro-4-fluoro-5-(7-morprholin-4-yl-quinazolin-4-yl)-pnenyl]-(3-methoxy-pyrazin-2-yl)-methanol]
IC50 [1, 5]: < 0.5 µM | IC50 (DNA-PK; biochemical DNA-PK assay): < 0.003 µM | Ki (Kv11.1 (hERG); [8]): 10 to 15 µM

SMILES: NC(=O)COc1ccc(C(O)c2cc(-c3ncnc4cc(N5CCOCC5)ccc34)c(F)cc2Cl)nn1 (stereo not drawn) [Example 111, 2-(6-{[2-Chloro-4-fluoro-5-(7-morpholin-4-yl-quinazolin-4-yl)-phenyl]hydroxy-methyl}pyridazin-3-yloxy)acetamide]
IC50 [1, 2]: 5 to 10 µM | IC50 (DNA-PK; enzymatic, 5 μM ATP): 0.003 to 0.007 µM | Ki (Kv11.1 (hERG); [3]): > 25 µM

SMILES: COc1ccc(C(O)c2cc(-c3ncnc4cc(N5CCOCC5)sc34)c(F)cc2Cl)nn1 (stereo not drawn) [Example 128, (2-Chloro-4-fluoro-5-(6-morpholin-4-ylthieno[3,2-d}-pyrimidin-4-yl)-phenyl]-(6-methoxy-pyridazin-3-yl)-methanol]
IC50 [1, 2]: 0.5 to 5 µM | IC50 (DNA-PK; enzymatic, 5 μM ATP): < 0.003 µM | Ki (Kv11.1 (hERG); [7]): 15 to 25 µM

SMILES: COc1nccnc1C(O)c1ccc(F)c(-c2ncnc3cc(N4CCOCC4)ccc23)c1 (stereo not drawn) [Example 15, [4-Fluoro-3-(7-morpholin-4-yl-quinazolin-4-yl)phenyl]-(3-methoxy-pyrazin-2-yl)methanol]
IC50 [1, 2]: < 0.5 µM | IC50 (DNA-PK; enzymatic, 5 μM ATP): < 0.003 µM | Ki (Kv11.1 (hERG); [7]): 15 to 25 µM

SMILES: OC(c1ccc(F)c(-c2ncnc3cc(N4CCOCC4)ccc23)c1)c1nccnc1OC1COC1 (stereo not drawn) [Example 32, [4-fluoro-3-(7-morpholin-4-yl-quinazolin-4-yl)phenyl]-[3-(oxetan-3-yloxy)-pyrazin-2-yl]methanol]
IC50 [1, 2]: 5 to 10 µM | IC50 (DNA-PK; enzymatic, 5 μM ATP): 0.007 to 0.03 µM | Ki (Kv11.1 (hERG); [7]): 15 to 25 µM
